Measured values as given in PMC4930906 (The Korean Journal of Physiology & Pharmacology : Official …, 2016).

Experiments:
TRESK = molecular target: T1, TRESK (Mus musculus, UniProt Q6VV64); test: whole-cell patch clamp, HEK293, voltage ramp, current at +[…] mV; type: cell-based
T1 sequence (Q6VV64 1-394): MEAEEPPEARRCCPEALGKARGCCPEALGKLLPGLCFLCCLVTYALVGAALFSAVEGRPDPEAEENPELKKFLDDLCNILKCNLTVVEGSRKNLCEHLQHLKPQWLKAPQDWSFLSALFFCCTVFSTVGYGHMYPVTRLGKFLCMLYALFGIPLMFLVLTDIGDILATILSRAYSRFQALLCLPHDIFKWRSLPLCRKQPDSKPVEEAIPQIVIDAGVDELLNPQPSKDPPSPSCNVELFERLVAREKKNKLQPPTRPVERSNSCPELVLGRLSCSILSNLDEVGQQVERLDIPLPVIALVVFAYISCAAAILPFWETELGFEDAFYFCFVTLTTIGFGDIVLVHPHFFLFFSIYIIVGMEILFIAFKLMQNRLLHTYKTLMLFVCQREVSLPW

TREK-2 = molecular target: T2, TREK-2 (Rattus norvegicus, UniProt Q9JIS4); test: as above; type: cell-based
T2 sequence (Q9JIS4 1-538): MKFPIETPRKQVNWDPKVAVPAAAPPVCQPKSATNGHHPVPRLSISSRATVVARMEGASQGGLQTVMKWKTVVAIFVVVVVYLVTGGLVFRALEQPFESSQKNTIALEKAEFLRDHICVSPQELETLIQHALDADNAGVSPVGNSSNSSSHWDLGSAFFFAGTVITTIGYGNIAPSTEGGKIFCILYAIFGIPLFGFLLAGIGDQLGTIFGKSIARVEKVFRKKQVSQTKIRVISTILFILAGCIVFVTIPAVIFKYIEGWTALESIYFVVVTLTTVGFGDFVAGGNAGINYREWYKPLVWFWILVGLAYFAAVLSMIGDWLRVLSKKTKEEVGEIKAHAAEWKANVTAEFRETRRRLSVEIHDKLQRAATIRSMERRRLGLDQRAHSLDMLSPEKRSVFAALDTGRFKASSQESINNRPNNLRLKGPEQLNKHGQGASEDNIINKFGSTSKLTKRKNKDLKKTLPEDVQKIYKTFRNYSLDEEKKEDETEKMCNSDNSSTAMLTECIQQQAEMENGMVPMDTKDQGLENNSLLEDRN

SMILES	IC50 (TRESK)	IC50 (TREK-2)
CC(=O)Nc1ccc(O)cc1 [acetaminophen]	220 ± 26 µM	
CN(C)CCC=C1c2ccccc2CCc2ccccc21 [amitriptyline]	26 ± 5 µM	16 ± 4 µM
CC(NC(C)(C)C)C(=O)c1cccc(Cl)c1 (stereo not shown) [bupropion]	160 ± 17 µM	
CN(C)CCCC1(c2ccc(F)cc2)OCc2cc(C#N)ccc21 (stereo not shown) [citalopram]	168 ± 11 µM	110 ± 9 µM
CN(C)CCC[C@@]1(c2ccc(F)cc2)OCc2cc(C#N)ccc21 [escitalopram]	49 ± 7 µM	102 ± 9 µM
CC(C)Cc1ccc(C(C)C(=O)O)cc1 (stereo not shown) [ibuprofen]	889 ± 10 µM	
COc1ccc2cc(CCC(C)=O)ccc2c1 [nabumetone]	557 ± 35 µM	
